Laboratory results from the supplement of paper PMC10307832.

Key:
Assay in all cases: relative viability (nuclei count vs DMSO), 5 days (fraction); higher = more cells survive
[1] = tested on: NCI-H596
In short: (§1)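 After 5 days of treatment, lung cancer cells in 1536-well plates were fixed and stained in a single step (final 0.05% Triton X-100, 1% formaldehyde, 1 ug/ml Hoechst) and their nuclei counted on 4× images. Treatment had been applied by pin tool the day after seeding as one drug alone or as a fixed anchor-drug dose with five library-drug doses (not always all listed) in √10 steps. Relative viability is the nuclei count of treated wells divided by that of vehicle wells, and values are medians of duplicate plates.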

[2] = tested on: NCI-H322M
In short: as §1

[3] = tested on: NCI-H1651
In short: as §1

[4] = tested on: NCI-H661
In short: as §1

[5] = tested on: LU99A
In short: as §1

[6] = tested on: LCLC-97TM1
In short: as §1

[7] = tested on: LXF-289
In short: as §1

[8] = tested on: BEN
In short: as §1

[9] = tested on: LC-2-ad
In short: as §1

[10] = tested on: NCI-H1666
In short: as §1

[11] = tested on: NCI-H1944
In short: as §1

[12] = tested on: NCI-H2342
In short: as §1

[13] = tested on: NCI-H358
In short: as §1

[14] = tested on: HCC-15
In short: as §1

[15] = tested on: NCI-H838
In short: as §1

[16] = tested on: HCC-78
In short: as §1

[17] = tested on: LK-2
In short: as §1

[18] = tested on: SK-MES-1
In short: as §1

[19] = tested on: ChaGo-K-1
In short: as §1

[20] = tested on: PC-3 [JPC-3]
In short: as §1

[21] = tested on: NCI-H2087
In short: as §1

[22] = tested on: NCI-H650
In short: as §1

[23] = tested on: UMC-11
In short: as §1

O=C(O)c1ccc(-c2c[nH]c3ncc(-c4ccccc4)cc23)cc1C1CCCC1 + Nc1ncn([C@H]2C[C@H](O)[C@@H](CO)O2)c(=O)n1 [Decitabine] (partner 2 µM)
relative viability ([1]; first compound 0.04 µM): 1.05
relative viability ([1]; first compound 0.1265 µM): 0.933
relative viability ([1]; first compound 0.4 µM): 1.01
relative viability ([1]; first compound 1.265 µM): 1.74
relative viability ([2]; first compound 0.04 µM): 0.772
relative viability ([2]; first compound 0.1265 µM): 0.704
relative viability ([2]; first compound 0.4 µM): 0.723
relative viability ([2]; first compound 1.265 µM): 0.66
relative viability ([3]; first compound 0.04 µM): 0.477
relative viability ([3]; first compound 0.1265 µM): 0.616
relative viability ([3]; first compound 0.4 µM): 0.57
relative viability ([3]; first compound 1.265 µM): 0.54
relative viability ([4]; first compound 0.04 µM): 0.518
relative viability ([4]; first compound 0.1265 µM): 0.586
relative viability ([4]; first compound 0.4 µM): 0.534
relative viability ([4]; first compound 1.265 µM): 0.524
relative viability ([5]; first compound 0.04 µM): 0.88
relative viability ([5]; first compound 0.1265 µM): 0.837
relative viability ([5]; first compound 0.4 µM): 0.822
relative viability ([5]; first compound 1.265 µM): 0.576
relative viability ([6]; first compound 0.04 µM): 0.254
relative viability ([6]; first compound 0.1265 µM): 0.226
relative viability ([6]; first compound 0.4 µM): 0.207
relative viability ([6]; first compound 1.265 µM): 0.195
relative viability ([7]; first compound 0.04 µM): 0.352
relative viability ([7]; first compound 0.1265 µM): 0.355
relative viability ([7]; first compound 0.4 µM): 0.361
relative viability ([7]; first compound 1.265 µM): 0.302
relative viability ([8]; first compound 0.04 µM): 0.621
relative viability ([8]; first compound 0.1265 µM): 0.901
relative viability ([8]; first compound 0.4 µM): 0.692
relative viability ([8]; first compound 1.265 µM): 0.585
relative viability ([9]; first compound 0.04 µM): 0.718
relative viability ([9]; first compound 0.1265 µM): 0.756
relative viability ([9]; first compound 0.4 µM): 0.737
relative viability ([9]; first compound 1.265 µM): 0.651
relative viability ([10]; first compound 0.04 µM): 0.689
relative viability ([10]; first compound 0.1265 µM): 0.805
relative viability ([10]; first compound 0.4 µM): 0.693
relative viability ([10]; first compound 1.265 µM): 0.613
relative viability ([11]; first compound 0.04 µM): 0.448
relative viability ([11]; first compound 0.1265 µM): 0.437
relative viability ([11]; first compound 0.4 µM): 0.423
relative viability ([11]; first compound 1.265 µM): 0.402
relative viability ([12]; first compound 0.04 µM): 0.724
relative viability ([12]; first compound 0.1265 µM): 0.663
relative viability ([12]; first compound 0.4 µM): 0.836
relative viability ([12]; first compound 1.265 µM): 0.731
relative viability ([13]; first compound 0.04 µM): 0.193
relative viability ([13]; first compound 0.1265 µM): 0.218
relative viability ([13]; first compound 0.4 µM): 0.172
relative viability ([13]; first compound 1.265 µM): 0.115
relative viability ([14]; first compound 0.04 µM): 0.641
relative viability ([14]; first compound 0.1265 µM): 0.673
relative viability ([14]; first compound 0.4 µM): 0.608
relative viability ([14]; first compound 1.265 µM): 0.381
relative viability ([15]; first compound 0.04 µM): 0.45
relative viability ([15]; first compound 0.1265 µM): 0.475
relative viability ([15]; first compound 0.4 µM): 0.416
relative viability ([15]; first compound 1.265 µM): 0.357
relative viability ([16]; first compound 0.1265 µM): 0.862
relative viability ([16]; first compound 0.4 µM): 0.859
relative viability ([16]; first compound 1.265 µM): 0.622
relative viability ([17]; first compound 0.04 µM): 0.253
relative viability ([17]; first compound 0.1265 µM): 0.327
relative viability ([17]; first compound 0.4 µM): 0.28
relative viability ([17]; first compound 1.265 µM): 0.333
relative viability ([18]; first compound 0.04 µM): 0.335
relative viability ([18]; first compound 0.1265 µM): 0.398
relative viability ([18]; first compound 0.4 µM): 0.363
relative viability ([18]; first compound 1.265 µM): 0.328
relative viability ([19]; first compound 0.04 µM): 0.515
relative viability ([19]; first compound 0.1265 µM): 0.501
relative viability ([19]; first compound 0.4 µM): 0.484
relative viability ([19]; first compound 1.265 µM): 0.478
relative viability ([20]; first compound 0.04 µM): 0.824
relative viability ([20]; first compound 0.1265 µM): 0.835
relative viability ([20]; first compound 0.4 µM): 0.939
relative viability ([20]; first compound 1.265 µM): 0.74
relative viability ([21]; first compound 0.04 µM): 0.263
relative viability ([21]; first compound 0.1265 µM): 0.273
relative viability ([21]; first compound 0.4 µM): 0.351
relative viability ([21]; first compound 1.265 µM): 0.364
relative viability ([22]; first compound 0.04 µM): 0.284
relative viability ([22]; first compound 0.1265 µM): 0.317
relative viability ([22]; first compound 0.4 µM): 0.329
relative viability ([22]; first compound 1.265 µM): 0.274
relative viability ([23]; first compound 0.04 µM): 0.653
relative viability ([23]; first compound 0.1265 µM): 0.565
relative viability ([23]; first compound 0.4 µM): 0.497
relative viability ([23]; first compound 1.265 µM): 0.626
